These results are taken from publication PMC10120310 (Cell Insight, 2022).

Test [1] deals with oseltamivir-resistant strain (H1N1, H274Y). Type of test: cell-based, H1N1 influenza virus (H274Y).
Test [2] has the same test system. The class given is cell-based, H1N1 influenza virus (H274Y). The source holds these as a separate data set.

For the compound `CCOC(=O)C1=C[C@@H](OC(CC)CC)[C@H](NC(C)=O)[C@@H](N)C1` [OSP, oseltamivir phosphate], the “viral NP mRNA level of the resistant strain” value in test [1] is listed as “no antiviral activity”. Moreover, the “viral NP protein level of the resistant strain” value in test [2] is reported as “no antiviral activity”.
